Values of other authors, collected in patent US5500226A, “Pharmaceutical composition having analgesic activity” (Zambon Group S.p.A., priority 1993, dated 1996).

Conditions: in words; vs Ibuprofen

Q: For `CC(C)Cc1ccc([C@H](C)C(=O)O)cc1` [(S)-Ibuprofen, S(+)-2-(4-isobutylphenyl)propionic acid], which Analgesic effect is on record?
A: more rapid, and consequently a more lasting, analgesic effect than Ibuprofen
